Reference: PubChem BioAssay (NCI)
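Grown in 96-well plates, cells were treated for 48 hours with each compound at five concentrations. Insufficient inhibition: endpoint recorded as highest concentration tested. TGI marks complete inhibition of growth.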

How the values were obtained:
Assay in all cases: growth of human tumour cells (NCI), 48 h
786-0 renal = system: 786-0 renal
A549 NSCLC = system: A549 NSCLC
ACHN renal = system: ACHN renal
BT-549 breast = system: BT-549 breast
CAKI-1 renal = system: CAKI-1 renal
CCRF-CEM leukemia = system: CCRF-CEM leukemia
COLO 205 colon = system: COLO 205 colon
DU-145 prostate = system: DU-145 prostate
EKVX NSCLC = system: EKVX NSCLC
HCC-2998 colon = system: HCC-2998 colon
HCT-116 colon = system: HCT-116 colon
HCT-15 colon = system: HCT-15 colon
HL-60(TB) leukemia = system: HL-60(TB) leukemia
HOP-62 NSCLC = system: HOP-62 NSCLC
HOP-92 NSCLC = system: HOP-92 NSCLC
HS 578T breast = system: HS 578T breast
HT29 colon = system: HT29 colon
IGROV1 ovarian = system: IGROV1 ovarian
K-562 leukemia = system: K-562 leukemia
KM12 colon = system: KM12 colon
LOX IMVI melanoma = system: LOX IMVI melanoma
M14 melanoma = system: M14 melanoma
MALME-3M melanoma = system: MALME-3M melanoma
MCF7 breast = system: MCF7 breast
MDA-MB-231 breast = system: MDA-MB-231 breast
MDA-MB-435 = system: MDA-MB-435
MDA-N = system: MDA-N
MOLT-4 leukemia = system: MOLT-4 leukemia
NCI-H23 lung = system: NCI-H23 lung
NCI-H460 lung = system: NCI-H460 lung
NCI-H522 lung = system: NCI-H522 lung
NCI/ADR-RES ovarian = system: NCI/ADR-RES ovarian
OVCAR-3 ovarian = system: OVCAR-3 ovarian
OVCAR-4 ovarian = system: OVCAR-4 ovarian
OVCAR-5 ovarian = system: OVCAR-5 ovarian
OVCAR-8 ovarian = system: OVCAR-8 ovarian
PC-3 prostate = system: PC-3 prostate
RPMI-8226 leukemia = system: RPMI-8226 leukemia
SF-268 CNS = system: SF-268 CNS
SF-295 CNS = system: SF-295 CNS
SF-539 CNS = system: SF-539 CNS
SK-MEL-2 melanoma = system: SK-MEL-2 melanoma
SK-MEL-28 melanoma = system: SK-MEL-28 melanoma
SK-MEL-5 melanoma = system: SK-MEL-5 melanoma
SK-OV-3 ovarian = system: SK-OV-3 ovarian
SN12C renal = system: SN12C renal
SNB-19 CNS = system: SNB-19 CNS
SNB-75 CNS = system: SNB-75 CNS
SR leukemia = system: SR leukemia
SW-620 colon = system: SW-620 colon
T-47D breast = system: T-47D breast
U251 CNS = system: U251 CNS
UACC-257 melanoma = system: UACC-257 melanoma
UACC-62 melanoma = system: UACC-62 melanoma
UO-31 renal = system: UO-31 renal
A498 renal = system: A498 renal
NCI-H226 lung = system: NCI-H226 lung
TK-10 renal = system: TK-10 renal

## O=[N+]([O-])c1ccc(NC(=S)N=Nc2c(O)[nH]c3ccccc23)cc1
786-0 renal
  TGI: 18.4 µM
A549 NSCLC
  TGI: 21.5 µM
ACHN renal
  TGI: 21.1 µM
BT-549 breast
  TGI: 55.4 µM
CAKI-1 renal
  TGI: 21.7 µM
CCRF-CEM leukemia
  TGI: > 100 µM
COLO 205 colon
  TGI: 26.3 µM
DU-145 prostate
  TGI: 29.5 µM
EKVX NSCLC
  TGI: 43 µM
HCC-2998 colon
  TGI: 26.7 µM
HCT-116 colon
  TGI: 18.6 µM
HCT-15 colon
  TGI: 16.7 µM
HL-60(TB) leukemia
  TGI: > 100 µM
HOP-62 NSCLC
  TGI: 18.1 µM
HOP-92 NSCLC
  TGI: 30.7 µM
HS 578T breast
  TGI: 59.8 µM
HT29 colon
  TGI: > 100 µM
IGROV1 ovarian
  TGI: 29.3 µM
K-562 leukemia
  TGI: > 100 µM
KM12 colon
  TGI: 78.2 µM
LOX IMVI melanoma
  TGI: 36.3 µM
M14 melanoma
  TGI: 25.7 µM
MALME-3M melanoma
  TGI: 21.9 µM
MCF7 breast
  TGI: 38.1 µM
MDA-MB-231 breast
  TGI: 13.9 µM
MDA-MB-435
  TGI: 53.7 µM
MDA-N
  TGI: 30.2 µM
MOLT-4 leukemia
  TGI: 19.8 µM
NCI-H23 lung
  TGI: 54.5 µM
NCI-H460 lung
  TGI: 29.2 µM
NCI-H522 lung
  TGI: 34.9 µM
NCI/ADR-RES ovarian
  TGI: 23.7 µM
OVCAR-3 ovarian
  TGI: 28.1 µM
OVCAR-4 ovarian
  TGI: 79.6 µM
OVCAR-5 ovarian
  TGI: 43.3 µM
OVCAR-8 ovarian
  TGI: 3.16 µM
PC-3 prostate
  TGI: 16.6 µM
RPMI-8226 leukemia
  TGI: > 100 µM
SF-268 CNS
  TGI: 37.9 µM
SF-295 CNS
  TGI: 21.5 µM
SF-539 CNS
  TGI: 31.1 µM
SK-MEL-2 melanoma
  TGI: 23.3 µM
SK-MEL-28 melanoma
  TGI: 36.9 µM
SK-MEL-5 melanoma
  TGI: 24 µM
SK-OV-3 ovarian
  TGI: 14.8 µM
SN12C renal
  TGI: 63 µM
SNB-19 CNS
  TGI: 36.4 µM
SNB-75 CNS
  TGI: 31.4 µM
SR leukemia
  TGI: > 100 µM
SW-620 colon
  TGI: 34.2 µM
T-47D breast
  TGI: 37.7 µM
U251 CNS
  TGI: 38.7 µM
UACC-257 melanoma
  TGI: 47.3 µM
UACC-62 melanoma
  TGI: 24 µM
UO-31 renal
  TGI: 19.3 µM

## CC1COC(c2cn[nH]c2C(N)=O)C1O (stereo not given)
786-0 renal
  TGI: > 100 µM
A498 renal
  TGI: > 100 µM
A549 NSCLC
  TGI: > 100 µM
ACHN renal
  TGI: > 100 µM
BT-549 breast
  TGI: > 100 µM
CAKI-1 renal
  TGI: > 100 µM
CCRF-CEM leukemia
  TGI: > 100 µM
COLO 205 colon
  TGI: > 100 µM
DU-145 prostate
  TGI: > 100 µM
EKVX NSCLC
  TGI: > 100 µM
HCT-116 colon
  TGI: > 100 µM
HCT-15 colon
  TGI: > 100 µM
HL-60(TB) leukemia
  TGI: > 100 µM
HOP-62 NSCLC
  TGI: > 100 µM
HS 578T breast
  TGI: > 100 µM
HT29 colon
  TGI: > 100 µM
IGROV1 ovarian
  TGI: > 100 µM
K-562 leukemia
  TGI: > 100 µM
KM12 colon
  TGI: > 100 µM
LOX IMVI melanoma
  TGI: > 100 µM
M14 melanoma
  TGI: > 100 µM
MCF7 breast
  TGI: > 100 µM
MDA-MB-231 breast
  TGI: > 100 µM
MDA-MB-435
  TGI: > 100 µM
MDA-N
  TGI: > 100 µM
MOLT-4 leukemia
  TGI: > 100 µM
NCI-H226 lung
  TGI: > 100 µM
NCI-H23 lung
  TGI: > 100 µM
NCI-H460 lung
  TGI: > 100 µM
NCI-H522 lung
  TGI: > 100 µM
NCI/ADR-RES ovarian
  TGI: > 100 µM
OVCAR-3 ovarian
  TGI: > 100 µM
OVCAR-4 ovarian
  TGI: > 100 µM
OVCAR-5 ovarian
  TGI: > 100 µM
OVCAR-8 ovarian
  TGI: > 100 µM
PC-3 prostate
  TGI: > 100 µM
RPMI-8226 leukemia
  TGI: > 100 µM
SF-268 CNS
  TGI: > 100 µM
SF-295 CNS
  TGI: > 100 µM
SF-539 CNS
  TGI: > 100 µM
SK-MEL-2 melanoma
  TGI: > 100 µM
SK-MEL-28 melanoma
  TGI: > 100 µM
SK-MEL-5 melanoma
  TGI: > 100 µM
SK-OV-3 ovarian
  TGI: > 100 µM
SN12C renal
  TGI: > 100 µM
SNB-19 CNS
  TGI: > 100 µM
SNB-75 CNS
  TGI: > 100 µM
SR leukemia
  TGI: > 100 µM
SW-620 colon
  TGI: > 100 µM
T-47D breast
  TGI: > 100 µM
TK-10 renal
  TGI: > 100 µM
U251 CNS
  TGI: > 100 µM
UACC-257 melanoma
  TGI: > 100 µM
UACC-62 melanoma
  TGI: > 100 µM
UO-31 renal
  TGI: > 100 µM
